Assay results taken from EP4806898A1, “HETEROARYL DERIVATIVE COMPOUND AND USE THEREOF” (Voronoi Inc., priority 2023, dated 2025).
Like-named read-outs stand apart in the source and are kept apart here.

How the values were obtained:
UWB1.289 cells = test: Cell proliferation inhibitory activity in BRCA1/2-mutant or HRD-positive cells (Cell Titer-Glo); type: cell-based; conditions: UWB1.289 cells, 144 hours after compound treatment, Cell Titer-Glo, 1.5 nM to 10 µM, read-out: GI50 UWB1.289 BRCA1 mut
Description: <Experimental Example 2> Evaluation of Cell Proliferation Inhibitory Activity in BRCA1/2-Mutant or HRD-Positive Cells
To evaluate the inhibitory activity of the compound according to the present invention on the proliferation of BRCA1/2 mutants or homologous recombination deficient (HRD) positive cell lines, the following experiments were performed. UWB1.289 cells were cultured in medium (50% MEBM + 50% RPMI1640), and 1,000 cells were seeded in a well plate (black clear bottom 96-well plate, Corning) 16 to 24 hours prior to compound treatment. The compounds were diluted in dimethyl sulfoxide (3-fold serial dilution starting at 10 µM, for a total of 10 concentrations) and injected at 1 µl per well, resulting a final concentration range of […] to 10 µM. Measurements of live cells were performed by a reaction in a 37 °C and CO2 incubator for 144 hours after compound treatment. The cells were incubated for 10 minutes in an incubator using Cell Titer-Glo luminescent cell-viability reagent (Promega), and luminescence intensity thereof was measured using a reader (SynergyNeo2, Biotek). GI50 values were calculated using the GraphPad Prism version 8.4.3 (GraphPad software Inc., San Diego) program.

recombinant USP1 protein = biological target: T1, recombinant USP1 protein (Homo sapiens, UniProt O94782, DEL125-138/DEL229-408/DEL608-737); test: Binding affinity to recombinant USP1 protein by differential scanning fluorimetry; conditions: compound 100 µM, 0.03 mg/mL USP1 (Δ1-66, Δ125-138, Δ229-408, Δ608-737), Tm with compound minus Tm with DMSO; for ΔTm at 100 µM: read-out: ΔTm (°C)
T1 sequence (O94782 with tags, fused parts or gaps DEL125-138/DEL229-408/DEL608-737): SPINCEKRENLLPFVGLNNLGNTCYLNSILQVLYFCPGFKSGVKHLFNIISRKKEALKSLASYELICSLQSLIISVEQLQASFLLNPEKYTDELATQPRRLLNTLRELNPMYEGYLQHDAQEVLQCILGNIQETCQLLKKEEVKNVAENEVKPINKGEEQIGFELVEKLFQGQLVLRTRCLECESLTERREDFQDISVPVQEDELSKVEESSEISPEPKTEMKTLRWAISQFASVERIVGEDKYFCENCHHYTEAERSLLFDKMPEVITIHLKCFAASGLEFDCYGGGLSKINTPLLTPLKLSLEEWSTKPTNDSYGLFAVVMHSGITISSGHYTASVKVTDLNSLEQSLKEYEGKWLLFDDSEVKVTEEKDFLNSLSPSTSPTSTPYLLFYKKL
Description: <Experimental Example 1> Confirmation and evaluation of the binding affinity to recombinant USP1 protein
To evaluate the binding affinity of the compounds of the present invention to the USP1 protein, the following experiment was performed using differential scanning fluorimetry.
Recombinant 0.03 mg/mL USP1 (Δ1-66, Δ125-138, Δ229-408, Δ608-737) protein, dye reagent, and buffer solution (50 mM Tris-HCl pH 8.0, 150 mM NaCl, 2% glycerol, 1 mM DTT) were mixed and 19 µL of the mixture was dispensed into a well plate (MicroAmp Fast 96-Well Reaction plate, 0.1 mL). Each compound was injected at a final concentration of 100 µM in an amount of 1 µL, and the plate containing a total of 20 µL was sealed with MicroAmp Optical Adhesive Film. The melting temperature (Tm) of the protein in each well was measured using a real-time PCR (RT-PCR) device. The difference between the Tm of the sample containing the compound and the Tm containing DMSO is referred to as delta Tm (ΔTm), where a larger ΔTm value indicates stronger binding affinity. The degree of temperature at which the protein is modified in the presence of the compound compared to DMSO was calculated according to Equation 1 below: [formula]

| Compound | GI50 (UWB1.289 cells; UWB1289) | ΔTm at 100 µM (recombinant USP1 protein) | also measured |
| --- | --- | --- | --- |
| 2-(4-cyclopropyl-6-ethoxypyrimidi n-5-yl)-7-(4-(1-isopropyl-4-(trifluorometh yl)-1H-imidazol-2-yl)benzyl)-N-methyl-7H-pyrrolo[2,3-d]pyrimidine-6-carboxamide [Example 63] |  |  | GI50 (UWB1.289 cells): < 100 nM; ΔTm (°C) (recombinant USP1 protein): A (ΔTm (°C) > 5 °C) |
| 2-(4-cyclopropyl-6-methoxypyrimid in-5-yl)-N-((3,3-difluorocyclob utyl)methyl) - 7-(4-(1-isopropyl-4-(trifluorometh yl)-1H-imidazol-2-yl)benzyl)-7H-pyrrolo[2,3-d]pyrimidine-6-carboxamide [Example 84] |  |  | GI50 (UWB1.289 cells): 100 to 500 nM |
| CNC(=O)c1cc2cnc(-c3c(OC)ncnc3C3CC3)nc2n1Cc1ccc(-c2nc(C(F)(F)F)cn2C(C)C)cc1 [Example 1, 2-(4-cyclopropyl-6-methoxypyrimidin-5-yl)-7-(4-(1-isopropyl-4-(trifluoromethyl)-1H-imidazol-2-yl)benzyl)-N-methyl-7H-pyrrolo[2,3-d]pyrimidine-6-carboxamide] | < 100 nM | > 5 °C |  |
| CNC(=O)c1cc2cnc(-c3ccccc3C(C)C)nc2n1Cc1ccc(-c2nc(C(F)(F)F)cn2C(C)C)cc1 [Example 2, 7-(4-(1-isopropyl-4-(trifluoromethyl)-1H-imidazol-2-yl)benzyl)-2-(2-isopropylphenyl)-N-methyl-7H-pyrrolo[2,3-d]pyrimidine-6-carboxamide] | < 100 nM | > 5 °C |  |
| [2H]C([2H])([2H])Oc1ncnc(C2CC2)c1-c1ncc2cc(C(=O)NC)n(Cc3ccc(-c4nc(C(F)(F)F)cn4C(C)C)cc3)c2n1 [Example 3, 2-(4-cyclopropyl-6-(methoxy-d3)pyrimidin-5-yl)-7-(4-(1-isopropyl-4-(trifluoromethyl)-1H-imidazol-2-yl)benzyl)-N-methyl-7H-pyrrolo[2,3-d]pyrimidine-6-carboxamide] | < 100 nM | > 5 °C |  |
| CCNC(=O)c1cc2cnc(-c3c(OC)ncnc3C3CC3)nc2n1Cc1ccc(-c2nc(C(F)(F)F)cn2C(C)C)cc1 [Example 4, 2-(4-cyclopropyl-6-methoxypyrimidin-5-yl)-N-ethyl-7-(4-(1-isopropyl-4-(trifluoromethyl)-1H-imidazol-2-yl)benzyl)-7H-pyrrolo[2,3-d]pyrimidine-6-carboxamide] | < 100 nM | > 5 °C |  |
| COc1ncnc(C2CC2)c1-c1ncc2cc(C(=O)N(C)C)n(Cc3ccc(-c4nc(C(F)(F)F)cn4C(C)C)cc3)c2n1 [Example 5, 2-(4-cyclopropyl-6-methoxypyrimidin-5-yl)-7-(4-(1-isopropyl-4-(trifluoromethyl)-1H-imidazol-2-yl)benzyl)-N,N-dimethyl-7H-pyrrolo[2,3-d]pyrimidine-6-carboxamide] | < 100 nM | > 5 °C |  |
| CC[C@@H](C)NC(=O)c1cc2cnc(-c3c(OC)ncnc3C3CC3)nc2n1Cc1ccc(-c2nc(C(F)(F)F)cn2C(C)C)cc1 [Example 92, (R)-N-(sec-butyl)-2-(4-cyclopropyl-6-methoxypyrimidin-5-yl)-7-(4-(1-isopropyl-4-(trifluoromethyl)-1H-imidazol-2-yl)benzyl)-7H-pyrrolo[2,3-d]pyrimidine-6-carboxamide] | < 100 nM |  |  |
| COc1ncnc(C2CC2)c1-c1ncc2cc(C(=O)NO)n(Cc3ccc(-c4nc(C(F)(F)F)cn4C(C)C)cc3)c2n1 [Example 120, 2-(4-cyclopropyl-6-methoxypyrimidin-5-yl)-N-hydroxy-7-(4-(1-isopropyl-4-(trifluoromethyl)-1H-imidazol-2-yl)benzyl)-7H-pyrrolo[2,3-d]pyrimidine-6-carboxamide] |  | > 5 °C |  |
| COc1ncnc(C2CC2)c1-c1ncc2cc(C(=O)NC[C@H]3CCCN3C)n(Cc3ccc(-c4nc(C(F)(F)F)cn4C(C)C)cc3)c2n1 [Example 136, (R) -2-(4-cyclopropyl-6-methoxypyrimidin-5-yl)-7-(4-(1-isopropyl-4-(trifluoromethyl)-1H-imidazol-2-yl)benzyl)-N-((1-methylpyrrolidin-2-yl)methyl)-7H-pyrrolo[2,3-d]pyrimidine-6-carboxamide] | < 100 nM |  |  |
| COc1ncnc(C2CC2)c1-c1ncc2cc(C(N)=O)n(Cc3ccc(-c4nc(C(F)(F)F)cn4C)cc3)c2n1 [Example 148, 2-(4-cyclopropyl-6-methoxypyrimidin-5-yl)-7-(4-(1-methyl-4-(trifluoromethyl)-1H-imidazol-2-yl)benzyl)-7H-pyrrolo[2,3-d]pyrimidine-6-carboxamide] | < 100 nM |  |  |
| COc1ncnc(C2CC2)c1-c1ncc2cc(C(=O)NC3CCNCC3)n(Cc3ccc(-c4nc(C(F)(F)F)cn4C(C)C)cc3)c2n1 [Example 159, 2-(4-cyclopropyl-6-methoxypyrimidin-5-yl)-7-(4-(1-isopropyl-4-(trifluoromethyl)-1H-imidazol-2-yl)benzyl)-N-(piperidin-4-yl)-7H-pyrrolo[2,3-d]pyrimidine-6-carboxamide] | 100 to 500 nM |  |  |
| COCCN1CC[C@@H](NC(=O)c2cc3cnc(-c4c(OC)ncnc4C4CC4)nc3n2Cc2ccc(-c3nc(C(F)(F)F)cn3C)cc2)[C@@H](F)C1 [Example 160, 2-(4-cyclopropyl-6-methoxypyrimidin-5-yl)-N-((3S,4R)-3-fluoro-1-(2-methoxyethyl)piperidin-4-yl)-7-(4-(1-methyl-4-(trifluoromethyl)-1H-imidazol-2-yl)benzyl)-7H-pyrrolo[2,3-d]pyrimidine-6-carboxamide] |  | > 5 °C |  |
| COc1ncnc(C2CC2)c1-c1ncc2cc(C(=O)N3CCCC3)n(Cc3ccc(-c4nc(C(F)(F)F)cn4C)cc3)c2n1 [Example 192, (2-(4-cyclopropyl-6-methoxypyrimid in-5-yl)-7-(4-(1-methyl-4-(trifluoromethyl)-1H-imidazol-2-yl)benzyl)-7H-pyrrolo[2,3-d]pyrimidin-6-yl) (pyrrolidin-1-yl)methanone] |  | > 5 °C |  |
| CNC(=O)c1cc2cnc(-c3c(O)ncnc3C3CC3)nc2n1Cc1ccc(-c2nc(C(F)(F)F)cn2C)cc1 [Example 206, 2-(4-cyclopropyl-6-hydroxypyrimidin-5-yl)-N-methyl-7-(4-(1-methyl-4-(trifluoromethyl)-1H-imidazol-2-yl)benzyl)-7H-pyrrolo[2,3-d]pyrimidine-6-carboxamide] |  | < 5 °C |  |
| CNC(=O)c1cc2cnc(-c3c(OC)ncnc3C3CC3)nc2n1Cc1ccc(-n2nc(C(F)(F)F)cc2C(=O)O)cc1 [Example 213, 1-(4-((2-(4-cyclopropyl-6-methoxypyrimidin-5-yl)-6-(methylcarbamoyl)-7H-pyrrolo[2,3-d]pyrimidin-7-yl)methyl)phenyl)-3-(trifluoromethyl)-1H-pyrazol-5-carboxylic acid] |  | < 5 °C |  |
| CNC(=O)c1cc2cnc(-c3c(OC)ncnc3C3CC3)nc2n1CC12CCC(c3nc(C(F)(F)F)cn3C(C)C)(CC1)CO2 [Example 226, 2-(4-cyclopropyl-6-methoxypyrimidin-5-yl)-7-(((1s,4s)-4-(1-isopropyl-4-(trifluoromethyl)-1H-imidazol-2-yl)-2-oxabicyclo[2.2 .2]octan-1-yl)methyl)-N-methyl-7H-pyrrolo[2,3-d]pyrimidine-6-carboxamide] |  | < 5 °C |  |
